Reference: article PMC3973950, “Synthesis of 5-arylidine amino-1,3,4-thiadiazol-2-[(N-substituted benzyol)]sulphonamides endowed with potent antioxidants and anticancer activity induces growth inhibition in HEK293, BT474 and NCI-H226 cells” (Medicinal Chemistry Research, 2013)

Test system: not listed separately
Experiment: In vitro cytotoxicity by MTT assay, HEK 293
Assay type: cell-based, human
Conditions: human, HEK 293 cells, 0.005 μM, read-out: % cytotoxicity (100 − % cell survival) of HEK 293 cell line
Method: (§1) The cancer cell line cultures of HEK 293 ([…]), BT474 (breast cancer cell line) and NCI-H226 (lung cancer) were obtained from Pasteur Institute of India, Coonoor, India, and were cultured in RPMI-1640 and 10 % heat-[…] New born calf serum with antibiotics [penicillin ([…]), streptomycin (100 μg/mL) and amphotericin B (25 μg/mL)]. The cells were maintained at 37 °C in a humidified atmosphere with 5 % CO2 and were subcultured twice a week.
(§2) The monolayer cell culture (100 μL) was trypsinized, and the cell count was adjusted to […] using medium containing 10 % new born calf serum. To each well of the 96-well microtitre plate, the diluted cell suspension (approximately 10,000 cells) (0.1 mL) was added and kept for 24 h in incubator at 37 °C in 5 % CO2 atmosphere for cell monolayer formation. After 24 h, when a partial monolayer was formed at the bottom of the well, the supernatant was flicked off, the monolayer was washed once, and different drugs, i.e. synthesized compounds (100 μL), were added to the cells in microtitre plates. The plates were then incubated at 37 °C for 3 days in 5 % CO2 atmosphere, and microscopic examination was carried out and observations recorded every 24 h. After 72 h, the sample solution in the wells was flicked off; MTT dye ([…]) was added to each well; plates were gently shaken and incubated for 4 h at 37 °C in 5 % CO2 incubator. The supernatant was removed and propanol (50 μL) was added; the plates were gently shaken to solubilize the formed formazan. The absorbance was measured using a microplate reader at a wavelength of 490 nm (Edmondson et al., [1988]; Prasad et al., [2005]; Chiruvella et al., [2008]; Chang et al., [2007]).

SMILES	cytotoxicity at 72 h, 0.005 µM
Nc1nnc(S(=O)(=O)NC(=O)c2ccc([N+](=O)[O-])cc2)s1 [Compound 4e]	30.6%

Same assay, conditions: human, HEK 293 cells, 0.015 μM, read-out: % cytotoxicity (100 − % cell survival) of HEK 293 cell line

SMILES	cytotoxicity at 72 h, 0.015 µM
Nc1nnc(S(=O)(=O)NC(=O)c2ccc([N+](=O)[O-])cc2)s1 [Compound 4e]	31.6%

Same assay, conditions: human, HEK 293 cells, 0.045 μM, read-out: % cytotoxicity (100 − % cell survival) of HEK 293 cell line

SMILES	cytotoxicity at 72 h, 0.045 µM
Nc1nnc(S(=O)(=O)NC(=O)c2ccc([N+](=O)[O-])cc2)s1 [Compound 4e]	34.1%

Same assay, conditions: human, HEK 293 cells, 0.13 μM, read-out: % cytotoxicity (100 − % cell survival) of HEK 293 cell line

SMILES	cytotoxicity at 72 h, 0.13 µM
Nc1nnc(S(=O)(=O)NC(=O)c2ccc([N+](=O)[O-])cc2)s1 [Compound 4e]	34.8%

Same assay, conditions: human, HEK 293 cells, 0.41 μM, read-out: % cytotoxicity (100 − % cell survival) of HEK 293 cell line

SMILES	cytotoxicity at 72 h, 0.41 µM
Nc1nnc(S(=O)(=O)NC(=O)c2ccc([N+](=O)[O-])cc2)s1 [Compound 4e]	35.4%

Same assay, conditions: human, HEK 293 cells, 1.23 μM, read-out: % cytotoxicity (100 − % cell survival) of HEK 293 cell line

SMILES	cytotoxicity at 72 h, 1.23 µM
Nc1nnc(S(=O)(=O)NC(=O)c2ccc([N+](=O)[O-])cc2)s1 [Compound 4e]	37.1%

Same assay, conditions: human, HEK 293 cells, 3.7 μM, read-out: % cytotoxicity (100 − % cell survival) of HEK 293 cell line

SMILES	cytotoxicity at 72 h, 3.7 µM
Nc1nnc(S(=O)(=O)NC(=O)c2ccc([N+](=O)[O-])cc2)s1 [Compound 4e]	38.9%

Same assay, conditions: human, HEK 293 cells, 11.11 μM, read-out: % cytotoxicity (100 − % cell survival) of HEK 293 cell line

SMILES	cytotoxicity at 72 h, 11.11 µM
Nc1nnc(S(=O)(=O)NC(=O)c2ccc([N+](=O)[O-])cc2)s1 [Compound 4e]	39.1%

Same assay, conditions: human, HEK 293 cells, 33.33 μM, read-out: % cytotoxicity (100 − % cell survival) of HEK 293 cell line

SMILES	cytotoxicity at 72 h, 33.33 µM
Nc1nnc(S(=O)(=O)NC(=O)c2ccc([N+](=O)[O-])cc2)s1 [Compound 4e]	40%

Same assay, conditions: human, HEK 293 cells, 100 μM, read-out: % cytotoxicity (100 − % cell survival) of HEK 293 cell line

SMILES	cytotoxicity at 72 h, 100 µM
Nc1nnc(S(=O)(=O)NC(=O)c2ccc([N+](=O)[O-])cc2)s1 [Compound 4e]	40.2%

Test system: BT474 (breast cancer cell line)
Experiment: In vitro cytotoxicity by MTT assay, BT474
Assay type: cell-based
Conditions: Homo sapiens, BT-474, 0.005 μM, 72 h, read-out: % cytotoxicity (100 − % cell survival) of BT474 cell line
Method: as §1, §2

SMILES	cytotoxicity at 0.005 µM
Nc1nnc(S(=O)(=O)NC(=O)c2ccc([N+](=O)[O-])cc2)s1 [Compound 4e]	30.9%

Same assay, conditions: Homo sapiens, BT-474, 0.015 μM, 72 h, read-out: % cytotoxicity (100 − % cell survival) of BT474 cell line

SMILES	cytotoxicity at 0.015 µM
Nc1nnc(S(=O)(=O)NC(=O)c2ccc([N+](=O)[O-])cc2)s1 [Compound 4e]	31%

Same assay, conditions: Homo sapiens, BT-474, 0.045 μM, 72 h, read-out: % cytotoxicity (100 − % cell survival) of BT474 cell line

SMILES	cytotoxicity at 0.045 µM
Nc1nnc(S(=O)(=O)NC(=O)c2ccc([N+](=O)[O-])cc2)s1 [Compound 4e]	31.8%

Same assay, conditions: Homo sapiens, BT-474, 0.13 μM, 72 h, read-out: % cytotoxicity (100 − % cell survival) of BT474 cell line

SMILES	cytotoxicity at 0.13 µM
Nc1nnc(S(=O)(=O)NC(=O)c2ccc([N+](=O)[O-])cc2)s1 [Compound 4e]	32.3%

Same assay, conditions: Homo sapiens, BT-474, 0.41 μM, 72 h, read-out: % cytotoxicity (100 − % cell survival) of BT474 cell line

SMILES	cytotoxicity at 0.41 µM
Nc1nnc(S(=O)(=O)NC(=O)c2ccc([N+](=O)[O-])cc2)s1 [Compound 4e]	33.1%

Same assay, conditions: Homo sapiens, BT-474, 1.23 μM, 72 h, read-out: % cytotoxicity (100 − % cell survival) of BT474 cell line

SMILES	cytotoxicity at 1.23 µM
Nc1nnc(S(=O)(=O)NC(=O)c2ccc([N+](=O)[O-])cc2)s1 [Compound 4e]	35.7%

Same assay, conditions: Homo sapiens, BT-474, 3.7 μM, 72 h, read-out: % cytotoxicity (100 − % cell survival) of BT474 cell line

SMILES	cytotoxicity at 3.7 µM
Nc1nnc(S(=O)(=O)NC(=O)c2ccc([N+](=O)[O-])cc2)s1 [Compound 4e]	37%

Same assay, conditions: Homo sapiens, BT-474, 11.11 μM, 72 h, read-out: % cytotoxicity (100 − % cell survival) of BT474 cell line

SMILES	cytotoxicity at 11.11 µM
Nc1nnc(S(=O)(=O)NC(=O)c2ccc([N+](=O)[O-])cc2)s1 [Compound 4e]	37.2%

Same assay, conditions: Homo sapiens, BT-474, 33.33 μM, 72 h, read-out: % cytotoxicity (100 − % cell survival) of BT474 cell line

SMILES	cytotoxicity at 33.33 µM
Nc1nnc(S(=O)(=O)NC(=O)c2ccc([N+](=O)[O-])cc2)s1 [Compound 4e]	38.9%

Same assay, conditions: Homo sapiens, BT-474, 100 μM, 72 h, read-out: % cytotoxicity (100 − % cell survival) of BT474 cell line

SMILES	cytotoxicity at 100 µM
Nc1nnc(S(=O)(=O)NC(=O)c2ccc([N+](=O)[O-])cc2)s1 [Compound 4e]	40.4%

Test system: not listed separately
Experiment: In vitro cytotoxicity by MTT assay, NCI-H226
Assay type: cell-based
Conditions: human, NCI-H226 lung cancer cells, 0.015 μM, read-out: % Cytotoxicity (100 − % cell survival) of NCI-H226 cell line
Method: as §1, §2

SMILES	cytotoxicity at 72 h, 0.015 µM
Nc1nnc(S(=O)(=O)NC(=O)c2ccc([N+](=O)[O-])cc2)s1 [Compound 4e]	28.1%

Test system: NCI-H226 (lung cancer cell line)
Experiment: In vitro cytotoxicity by MTT assay, NCI-H226
Assay type: cell-based
Conditions: Homo sapiens, NCI-H226, 0.005 μM, 72 h, read-out: % Cytotoxicity (100 − % cell survival) of NCI-H226 cell line
Method: as §1, §2

SMILES	cytotoxicity at 0.005 µM
Nc1nnc(S(=O)(=O)NC(=O)c2ccc([N+](=O)[O-])cc2)s1 [Compound 4e]	27.3%

Same assay, conditions: Homo sapiens, NCI-H226, 0.045 μM, 72 h, read-out: % Cytotoxicity (100 − % cell survival) of NCI-H226 cell line

SMILES	cytotoxicity at 0.045 µM
Nc1nnc(S(=O)(=O)NC(=O)c2ccc([N+](=O)[O-])cc2)s1 [Compound 4e]	28.9%

Same assay, conditions: Homo sapiens, NCI-H226, 0.13 μM, 72 h, read-out: % Cytotoxicity (100 − % cell survival) of NCI-H226 cell line

SMILES	cytotoxicity at 0.13 µM
Nc1nnc(S(=O)(=O)NC(=O)c2ccc([N+](=O)[O-])cc2)s1 [Compound 4e]	29.6%

Same assay, conditions: Homo sapiens, NCI-H226, 0.41 μM, 72 h, read-out: % Cytotoxicity (100 − % cell survival) of NCI-H226 cell line

SMILES	cytotoxicity at 0.41 µM
Nc1nnc(S(=O)(=O)NC(=O)c2ccc([N+](=O)[O-])cc2)s1 [Compound 4e]	29.9%

Same assay, conditions: Homo sapiens, NCI-H226, 1.23 μM, 72 h, read-out: % Cytotoxicity (100 − % cell survival) of NCI-H226 cell line

SMILES	cytotoxicity at 1.23 µM
Nc1nnc(S(=O)(=O)NC(=O)c2ccc([N+](=O)[O-])cc2)s1 [Compound 4e]	30.6%

Same assay, conditions: Homo sapiens, NCI-H226, 3.7 μM, 72 h, read-out: % Cytotoxicity (100 − % cell survival) of NCI-H226 cell line

SMILES	cytotoxicity at 3.7 µM
Nc1nnc(S(=O)(=O)NC(=O)c2ccc([N+](=O)[O-])cc2)s1 [Compound 4e]	31.3%

Same assay, conditions: Homo sapiens, NCI-H226, 11.11 μM, 72 h, read-out: % Cytotoxicity (100 − % cell survival) of NCI-H226 cell line

SMILES	cytotoxicity at 11.11 µM
Nc1nnc(S(=O)(=O)NC(=O)c2ccc([N+](=O)[O-])cc2)s1 [Compound 4e]	32.2%

Same assay, conditions: Homo sapiens, NCI-H226, 33.33 μM, 72 h, read-out: % Cytotoxicity (100 − % cell survival) of NCI-H226 cell line

SMILES	cytotoxicity at 33.33 µM
Nc1nnc(S(=O)(=O)NC(=O)c2ccc([N+](=O)[O-])cc2)s1 [Compound 4e]	33.3%

Same assay, conditions: Homo sapiens, NCI-H226, 100 μM, 72 h, read-out: % Cytotoxicity (100 − % cell survival) of NCI-H226 cell line

SMILES	cytotoxicity at 100 µM
Nc1nnc(S(=O)(=O)NC(=O)c2ccc([N+](=O)[O-])cc2)s1 [Compound 4e]	34.6%
